Here are results for one compound from PMC4916434, “Evaluation of the inhibition potential of plumbagin against cytochrome P450 using LC-MS/MS and cocktail approach” (Scientific Reports, 2016).

What all share (format): in vitro ADME
For data set [1], the target named is T1, CYP2D6 (Homo sapiens, UniProt P10635).
T1 construct: consisting of pooled HLMs (0.5 mg/ml) or RLMs (1 mg/ml) and an NADPH-regenerating system; tissue Corning Gentest Corporation; host or cells: pooled human liver microsomes (n = 20)
T1 sequence (P10635 whole entry): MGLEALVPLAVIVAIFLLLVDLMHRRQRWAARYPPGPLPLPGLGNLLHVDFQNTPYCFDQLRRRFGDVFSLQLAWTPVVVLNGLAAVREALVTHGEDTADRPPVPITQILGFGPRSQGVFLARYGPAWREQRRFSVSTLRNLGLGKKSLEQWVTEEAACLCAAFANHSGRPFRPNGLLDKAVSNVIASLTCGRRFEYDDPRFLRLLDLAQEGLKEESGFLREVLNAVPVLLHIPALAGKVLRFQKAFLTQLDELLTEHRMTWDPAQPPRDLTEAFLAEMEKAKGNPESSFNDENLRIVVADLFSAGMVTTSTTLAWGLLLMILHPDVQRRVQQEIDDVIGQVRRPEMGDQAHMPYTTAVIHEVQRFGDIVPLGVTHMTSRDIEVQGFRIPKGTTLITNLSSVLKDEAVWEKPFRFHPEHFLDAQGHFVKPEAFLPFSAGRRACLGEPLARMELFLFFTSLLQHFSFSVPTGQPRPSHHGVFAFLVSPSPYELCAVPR
Put plainly: CYP2D6 inhibition (dextromethorphan O-demethylation) in pooled human liver microsomes, cocktail LC-MS/MS. Here is the method: (§1) Microsomal incubation was carried out at 37 °C in a mixture of 200 μl in 0.05 M Tris/HCl buffer (pH 7.4) consisting of pooled HLMs (0.5 mg/ml) or RLMs (1 mg/ml) and an NADPH-regenerating system including MgCl2 (5 mM), G6P (10 mM), G6PDH (0.4 U/ml) and NADP (1 mM). Substrates were added into the incubation mixture and obtained the final concentrations (10 μM phenacetin for CYP1A2, 20 μM bupropion for CYP2B1/6, 20 μM tolbutamide for CYP2C9/11, 5 μM dextromethorphan for CYP2D1/6, 20 μM chlorzoxazone for CYP2E1 and 10 μM midazolam for CYP3A2/4), which were close to Km respectively. The proportion of organic solvent was not higher than 1% (v/v) in the incubation mixture. After pre-incubation for 5 min, the reaction was initiated by addition of NADP. Incubations were performed for 20 min, stopped by adding 200 μl ice-cold acetonitrile. And then 20 μl internal standard solution was added (3-acetamidophenol 2 μg/ml, chlorpropamide 2 μg/ml and mebendazole 2 μg/ml). The solution was mixed thoroughly for 3 min and centrifuged for 10 min at 16,000 × g at 4 °C. The supernatant (60 μl) was transferred to autosampler vials, and 2 μl was injected into LC-MS/MS system.
(§2) The IC50 (concentration of inhibitor to cause 50% inhibition of original enzyme activity) values were determined with the same incubation condition above. The specific concentrations of plumbagin were ranged from 0.1 μM to 50 μM. The IC50 values were calculated by plotting relative activities over the logarithm of plumbagin concentrations using GraphPad Prism 5.0 (GraphPad software Inc., CA, USA).
(§3) Cocktail probe substrates were then added and incubated for 20 min. Reactions were stopped with 200 μl ice-cold acetonitrile. The samples were treated according to the microsomal incubation method and then injected into LC-MS/MS for analysis.
(§4) Kinetic studies were performed for determining the types of inhibition on CYP by plumbagin. Pooled HLMs (0.5 mg/ml) or RLMs (1 mg/ml) with plumbagin (1 μM, 2 μM, 5 μM and 10 μM) were incubated in 0.05 M Tris/HCl buffer (pH 7.4) for 20 min at 37 °C. A series of concentrations for cocktail probe substrates were used: 2.5–20 μM phenacetin for CYP1A2; 5–40 μM bupropion for CYP2B1/6; 5–40 μM tolbutamide for CYP2C9/11; 1.25–10 μM dextromethorphan for CYP2D1/6; 5–40 μM chlorzoxazone for CYP2E1; 2.5–80 μM midazolam for CYP3A2; and 0.625–5 μM midazolam for CYP3A4. Enzyme kinetics as well as statistical analysis were performed using GraphPad Prism 5.0.
(§5) All data were presented as mean ± SD. The IC50 values were fitted by non-linear regression analysis using GraphPad Prism 5.0. The kinetic parameters were obtained by fitting velocity data to kinetic models (Michaelis-Menten) using GraphPad Prism 5.0. The Lineweaver-Burk Plot (the reciprocal of reaction velocities versus the reciprocal of substrates concentrations) was used to determine the quality of fit to a specific inhibition model. The inhibition constant (Ki) was obtained by a secondary plot using the slopes of the primary Lineweaver-Burk Plot (Km/Vmax versus inhibitor concentrations). αKi was obtained from a secondary plot using the y-intercepts of the Lineweaver-Burk plot (1/Vmax versus inhibitor concentrations). All results were analyzed in quadruplicate. One-way analysis of variance was used to estimate the significance of differences. There was statistical significance between control and test groups if p < 0.05.
On the technique in general: Microsomes from liver hold many membrane-bound enzymes, among them those of drug oxidation.

Data set [2] deals with T2, CYP1A2 (Rattus norvegicus, UniProt P04799).
T2 construct: consisting of pooled HLMs (0.5 mg/ml) or RLMs (1 mg/ml) and an NADPH-regenerating system; from tissue; host or cells: rat liver microsomes prepared in house
T2 sequence (P04799 1-513): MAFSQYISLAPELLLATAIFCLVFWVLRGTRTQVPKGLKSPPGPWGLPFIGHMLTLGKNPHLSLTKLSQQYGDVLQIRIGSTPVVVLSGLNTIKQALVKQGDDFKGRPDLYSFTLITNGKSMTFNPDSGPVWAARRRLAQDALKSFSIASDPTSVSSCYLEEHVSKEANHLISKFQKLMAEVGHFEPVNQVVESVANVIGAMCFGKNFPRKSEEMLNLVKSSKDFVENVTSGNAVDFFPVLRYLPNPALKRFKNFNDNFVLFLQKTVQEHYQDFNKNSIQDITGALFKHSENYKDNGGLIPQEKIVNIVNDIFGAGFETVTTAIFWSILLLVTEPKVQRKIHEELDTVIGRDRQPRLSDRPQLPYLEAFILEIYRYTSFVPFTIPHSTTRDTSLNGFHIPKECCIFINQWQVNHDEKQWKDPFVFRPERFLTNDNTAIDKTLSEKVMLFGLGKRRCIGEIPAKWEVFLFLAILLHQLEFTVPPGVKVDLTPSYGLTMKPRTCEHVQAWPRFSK
Put plainly: CYP1A2 inhibition (phenacetin O-deethylation) in rat liver microsomes, cocktail LC-MS/MS. The procedure: In this study, the rats were fasted overnight and killed by cervical dislocation before removal of the liver. The liver was excised, rinsed with ice-cold saline (0.9% NaCl w/v), weighed and homogenized in a […] Tris/KCl buffer (pH 7.4). Subsequently, the homogenate was centrifuged at 10,000 × g at 4 °C for 30 min. The supernatant was then centrifuged at 105,000 × g at 4 °C for 60 min. The pellet was reconstituted with […] Tris/KCl buffer (pH 7.4) and stored at −150 °C until use. The protein concentration of the liver microsomes was determined by a protein quantitative assay using bicinchoninic acid[22].
as §1, §2, §3, §4
as §5, with “There was statistical significance between control and test groups if p < 0.05.” left out

For data set [3], the target named is T3, CYP2C9 (Homo sapiens, UniProt P11712).
T3 construct: consisting of pooled HLMs (0.5 mg/ml) or RLMs (1 mg/ml) and an NADPH-regenerating system; tissue Corning Gentest Corporation; host or cells: pooled human liver microsomes (n = 20)
T3 sequence (P11712 whole entry): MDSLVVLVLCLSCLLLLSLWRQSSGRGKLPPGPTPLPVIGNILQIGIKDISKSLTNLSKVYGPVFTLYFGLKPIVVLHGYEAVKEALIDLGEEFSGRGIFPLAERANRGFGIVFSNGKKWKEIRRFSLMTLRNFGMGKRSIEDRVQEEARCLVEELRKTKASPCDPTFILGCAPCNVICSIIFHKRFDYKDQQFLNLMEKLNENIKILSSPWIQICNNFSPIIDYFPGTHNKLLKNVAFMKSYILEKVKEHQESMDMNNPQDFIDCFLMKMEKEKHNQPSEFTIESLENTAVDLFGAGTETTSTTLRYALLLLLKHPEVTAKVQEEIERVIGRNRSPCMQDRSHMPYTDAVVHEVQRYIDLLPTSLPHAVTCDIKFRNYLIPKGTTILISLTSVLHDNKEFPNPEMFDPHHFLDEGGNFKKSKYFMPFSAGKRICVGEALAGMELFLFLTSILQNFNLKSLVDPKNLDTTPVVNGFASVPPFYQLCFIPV
Put plainly: CYP2C9 inhibition (tolbutamide methyl-hydroxylation) in pooled human liver microsomes, cocktail LC-MS/MS. The procedure: as §1, §2, §3, §4, §5

A word on the IC50: it is the concentration at which inhibition is half-maximal. As a reminder, the Ki is a dissociation constant, usually derived from enzyme kinetics or from competition with a known ligand. A lower Ki goes with tighter binding. In the case of `CC1=CC(=O)c2c(O)cccc2C1=O` [plumbagin, 5-hydroxy-2-methyl-1,4-naphthoquinone], the IC50 amounted to 10200 nM in data set [1], 2650 nM in data set [2] and 10900 nM in data set [3]. In addition, the Type of inhibition result is “mixed-type” in data set [1]; “mixed-type” in data set [2] (RLMs, Lineweaver-Burk); “mixed-type” in data set [3]. For the same compound, the Ki in data set [1] (HLMs, secondary Lineweaver-Burk plot, dextromethorphan 1.25-10 μM) was 1460 nM; in data set [2], 2640 nM; in data set [3], 2160 nM. Besides, the α in data set [1] (human, 20 min, pH 7.4) was 0.66; in data set [2] (RLMs), 0.31; in data set [3] (human, 20 min, pH 7.4), 1.48. The αKi in data set [1] (human, 20 min, pH 7.4) came to 2.22 µM; in data set [2] (RLMs, secondary plot of y-intercepts, phenacetin 2.5-20 μM), 8.51 µM; in data set [3] (HLMs, secondary plot of y-intercepts, tolbutamide 5-40 μM) it was 1.46 µM. In addition, the Time-dependent inhibition entry in data set [2] (RLMs, pre-incubation with NADPH 0, 5, 10, 20 min, plumbagin 0.2, 0.5, 1 μM) was “no time-dependent inhibition”.
